The values that follow are results of earlier work, collected in patent publication US11197860B2 (Eli Lilly and Company, priority 2018, dated 2021).

For data set [1] the following is noted: phase 3 trials; EMA Assessment Report for Olumiant.
The conditions of data set [2]: patients in clinical trials; ALT and AST increases to >=5x and >=10x ULN observed.
The conditions of data set [3]: PBC patients; Nevens et al. 2016.

Consider `CCS(=O)(=O)N1CC(CC#N)(n2cc(-c3ncnc4[nH]ccc34)cn2)C1` [baricitinib, {1-(ethylsulfonyl)-3-[4-(7H-pyrrolo[2,3-d]pyrimidin-4-yl)-1H-pyrazol-1-yl]azetidin-3-yl}acetonitrile], for which the “patient's ALP after treatment” value in data set [1] is given as “ALP decreased after treatment”. Moreover, the “incidence of liver enzyme elevation compared to placebo” value in data set [2] is recorded as “increased incidence of liver enzyme elevation compared to placebo”.

As for `CC[C@H]1[C@@H](O)[C@@H]2[C@H](CC[C@]3(C)[C@@H]([C@H](C)CCC(=O)O)CC[C@@H]23)[C@@]2(C)CC[C@@H](O)C[C@@H]12` [obeticholic acid, Obeticholic acid], the “pruritus (adverse effect)” value in data set [3] is given as “associated with increased pruritus”.
